{"source": "a compilation of properties of binary mixtures (doi:10.1016/j.molliq.2014.09.006)", "assay": "xn = mol fraction of the nth substance listed", "conditions": "101 kPa"}
{"smiles": "CCCC[n+]1ccn(C)c1.O=[N+]([O-])[O-]", "note": "+ CCO", "values": [{"measurement": "viscosity", "setting": "283.15 K, x2 = 0", "value": 400, "unit": "mPa·s"}, {"measurement": "viscosity", "setting": "283.15 K, x2 = 0.2", "value": 121, "unit": "mPa·s"}, {"measurement": "viscosity", "setting": "283.15 K, x2 = 0.4", "value": 46.4, "unit": "mPa·s"}, {"measurement": "viscosity", "setting": "283.15 K, x2 = 0.6", "value": 18.9, "unit": "mPa·s"}, {"measurement": "viscosity", "setting": "288.15 K, x2 = 0", "value": 290, "unit": "mPa·s"}, {"measurement": "viscosity", "setting": "288.15 K, x2 = 0.2", "value": 93, "unit": "mPa·s"}, {"measurement": "viscosity", "setting": "288.15 K, x2 = 0.4", "value": 37.8, "unit": "mPa·s"}, {"measurement": "viscosity", "setting": "288.15 K, x2 = 0.6", "value": 15.9, "unit": "mPa·s"}, {"measurement": "viscosity", "setting": "293.15 K, x2 = 0", "value": 210, "unit": "mPa·s"}, {"measurement": "viscosity", "setting": "293.15 K, x2 = 0.2", "value": 73, "unit": "mPa·s"}, {"measurement": "viscosity", "setting": "293.15 K, x2 = 0.6", "value": 13.5, "unit": "mPa·s"}, {"measurement": "viscosity", "setting": "298.15 K, x2 = 0.4", "value": 26.1, "unit": "mPa·s"}, {"measurement": "viscosity", "setting": "298.15 K, x2 = 0.6", "value": 11.6, "unit": "mPa·s"}, {"measurement": "viscosity", "setting": "303.15 K, x2 = 0", "value": 121, "unit": "mPa·s"}, {"measurement": "viscosity", "setting": "303.15 K, x2 = 0.2", "value": 47.1, "unit": "mPa·s"}, {"measurement": "viscosity", "setting": "303.15 K, x2 = 0.4", "value": 22, "unit": "mPa·s"}, {"measurement": "viscosity", "setting": "308.15 K, x2 = 0", "value": 94, "unit": "mPa·s"}, {"measurement": "viscosity", "setting": "308.15 K, x2 = 0.4", "value": 18.8, "unit": "mPa·s"}, {"measurement": "viscosity", "setting": "308.15 K, x2 = 0.6", "value": 8.84, "unit": "mPa·s"}, {"measurement": "viscosity", "setting": "313.15 K, x2 = 0", "value": 74, "unit": "mPa·s"}, {"measurement": "viscosity", "setting": "313.15 K, x2 = 0.4", "value": 16.3, "unit": "mPa·s"}, {"measurement": "viscosity", "setting": "313.15 K, x2 = 0.6", "value": 7.81, "unit": "mPa·s"}, {"measurement": "viscosity", "setting": "318.15 K, x2 = 0", "value": 59.4, "unit": "mPa·s"}, {"measurement": "viscosity", "setting": "318.15 K, x2 = 0.6", "value": 6.95, "unit": "mPa·s"}, {"measurement": "viscosity", "setting": "323.15 K, x2 = 0", "value": 48.2, "unit": "mPa·s"}, {"measurement": "viscosity", "setting": "323.15 K, x2 = 0.2", "value": 22.8, "unit": "mPa·s"}, {"measurement": "viscosity", "setting": "323.15 K, x2 = 0.4", "value": 12.4, "unit": "mPa·s"}, {"measurement": "viscosity", "setting": "323.15 K, x2 = 0.6", "value": 6.23, "unit": "mPa·s"}, {"measurement": "viscosity", "setting": "328.15 K, x2 = 0", "value": 39.6, "unit": "mPa·s"}, {"measurement": "viscosity", "setting": "328.15 K, x2 = 0.2", "value": 19.6, "unit": "mPa·s"}, {"measurement": "viscosity", "setting": "328.15 K, x2 = 0.4", "value": 11, "unit": "mPa·s"}, {"measurement": "viscosity", "setting": "328.15 K, x2 = 0.6", "value": 5.62, "unit": "mPa·s"}, {"measurement": "viscosity", "setting": "333.15 K, x2 = 0", "value": 32.9, "unit": "mPa·s"}, {"measurement": "viscosity", "setting": "333.15 K, x2 = 0.2", "value": 16.9, "unit": "mPa·s"}, {"measurement": "viscosity", "setting": "333.15 K, x2 = 0.4", "value": 9.8, "unit": "mPa·s"}, {"measurement": "viscosity", "setting": "333.15 K, x2 = 0.6", "value": 5.1, "unit": "mPa·s"}]}
